Reference: US20070004715A1, “Novel spiro-quinuclidinyl derivatives for the treatment of central nervous system disorders” (priority 2005, published 2007)
Counter-ions that a name gives are not always drawn.

Experiments:
[1] = tested on: Synaptosomes from guinea pig hippocampus; test: % Inhibition of AcH Release Assay (K+-evoked 3H-acetylcholine release); type: cell-based; details: synaptosomes pre-treated with 10 μM test compound prior to 65 mM K+ stimulation
Procedure: Synaptosomes from guinea pig hippocampus were incubated with 0.1 μM ^3H-choline and then subjected to repeated washes with buffer to remove unincorporated ^3H-choline. The synaptosomes were then treated with 65 mM K^+ for 30 seconds to elicit 3H-acetylcholine release.
To determine if a test compound will inhibit acetylcholine release, the synaptosomes were pre-treated with 10 μM of the test compound prior to the K+ stimulation. The decrease or increase in acetylcholine release was then measured by superfusion.
(§1) Both the Aβ aggregation assay as described in Example 55, particularly as run using the ^125I-Aβ1-40, and the % inhibition of AcH release assay as described in Example 56, were highly variable on a run-to-run basis. However, the relative activities of the tested compounds were reproducible.

[2] = molecular target: T1, fluo-Aβ1-40 (Homo sapiens, UniProt P05067); test: Aβ Aggregation Assay (Synthaloid plates, fluo-Aβ1-40); type: biochemical; details: 10 μM test compound, 100 nM fluo-Aβ1-40, 2.5 hr at room temperature; higher % = greater effectiveness at preventing aggregation
T1 construct: added 100 nM of fluo-Aβ1-40 in 100 μl
T1 sequence (P05067 672-711): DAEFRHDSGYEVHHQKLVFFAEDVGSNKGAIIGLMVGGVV
Procedure: Aβs are known to form aggregates leading to the formation of amyloid plaques that are characteristic of Alzheimer's disease.
This aggregation assay was validated using both ^125I-Aβ1-40 and fluo-Aβ1-40 in a buffer containing 50 mM HEPES, pH 7.4, 0.1% BSA, 10% FCS and protease inhibitors.
To each well of a 96-well Synthaloid plate was added 100 nM of fluo-Aβ1-40 in 100 μl. To each well was then added 10 μM of test compound. The plate was then allowed to incubate for 2.5 hr at room temperature. At the end of the incubation, unbound protein in the wells was removed by three washes using the buffer as described above. The amount of bound protein (which represents the amount of Aβ aggregation) was measured either by fluorescence measurements.
Higher fluorescence values relative to vehicle wells were interpreted as an indication of greater Aβ aggregation. […] Higher % values in the data in Table 4 below, below indicates greater effectiveness at preventing aggregation.
as §1

Row | SMILES | Inhibition of acetylcholine release [1] [%] | Aβ aggregation inhibition (%) [2] [%]
1 | COc1ccc(OC)c(N2C(=O)OC3(CN4CCC3CC4)C2=O)c1 (stereo not drawn) [Compound 29, 3′-(2,5-dimethoxyphenyl)-quinuclidine-3-spiro-5′-oxazolidine-2′,4′-dione trifluoroacetate salt] | 20 | 100
2 | Cc1ccc(C)c(N2C(=O)OC3(CN4CCC3CC4)C2=O)c1 (stereo not drawn) [Compound 11, 3′-(2,5-dimethyphenyl)-quinuclidine-3-spiro-5′-oxazolidine-2′,4′-dione trifluoroacetate salt] | 71 | 0
3 | O=C1OC2(CN3CCC2CC3)C(=O)N1c1ccc(O)cc1 (stereo not drawn) [Compound 18, 3′-(4-hydroxyphenyl)-quinuclidine-3-spiro-5′-oxazolidine-2′,4′-dione trifluoroacetate salt] | 23 | 0
4 | CCOC(=O)c1cccc(N2C(=O)OC3(CN4CCC3CC4)C2=O)c1 (stereo not drawn) [Compound 13, 3′-(3-ethoxycarbonylphenyl)-quinuclidine-3-spiro-5′-oxazolidine-2′,4′-dione trifluoroacetate salt] | 20 | 100
5 | O=C1OC2(CN3CCC2CC3)C(=O)N1c1ccc(F)cc1F (stereo not drawn) [Compound 21, 3′-(2,4-difluorophenyl)-quinuclidine-3-spiro-5′-oxazolidine-2′,4′-dione trifluoroacetate salt] | 17 | 1
6 | O=C1OC2(CN3CCC2CC3)C(=O)N1c1cccc(Cl)c1 (stereo not drawn) [Compound 10, 3′-(3-chlorophenyl)-quinuclidine-3-spiro-5′-oxazolidine-2′,4′-dione trifluoroacetate salt] | 60 | 50
7 | COc1ccc(N2C(=O)OC3(CN4CCC3CC4)C2=O)c(C)c1 (stereo not drawn) [Compound 4, 3′-(4-methoxy-2-methylphenyl)-quinuclidine-3-spiro-5′-oxazolidine-2′,4′-dione trifluoroacetate salt] | 36 | 95
8 | N=C1CC2(CN3CCC2CC3)OC(=O)N1c1ccc(Cl)c(Cl)c1 (stereo not drawn) [Compound 104, 3′-(3,4-dichlorophenyl)-quinuclidine-3-spiro-4′-iminooxan-2-ones trifluoroacetate salt] | 43 | 0
9 | N=C1CC2(CN3CCC2CC3)OC(=O)N1c1cccc(Cl)c1 (stereo not drawn) [Compound 108, 3′-(3-chlorophenyl)-quinuclidine-3-spiro-4′-iminooxan-2-ones trifluoroacetate salt] | 63 | 70
10 | COc1cccc(N2C(=O)OC3(CN4CCC3CC4)C2=O)c1 (stereo not drawn) [Compound 14, 3′-(3-methoxyphenyl)-quinuclidine-3-spiro-5′-oxazolidine-2′,4′-dione trifluoroacetate salt] | 14 | 42
11 | COc1ccc(N2C(=O)OC3(CN4CCC3CC4)C2=O)cc1 (stereo not drawn) [Compound 3, 3′-(4-methoxyphenyl)-quinuclidine-3-spiro-5′-oxazolidine-2′,4′-dione trifluoroacetate salt] | 27 | 100
12 | Cc1cccc(N2C(=O)OC3(CN4CCC3CC4)C2=O)c1C (stereo not drawn) [Compound 27, 3′-(2,3-dimethylphenyl)-quinuclidine-3-spiro-5′-oxazolidine-2′,4′-dione trifluoroacetate salt] | 25 | 35
13 | CCOC(=O)CN1C(=O)OC2(CN3CCC2CC3)C1=O (stereo not drawn) [Compound 30, 3′-(2-ethoxycarbonylmethyl)-quinuclidine-3-spiro-5′-oxazolidine-2′,4′-dione hydrochloride] | 21 | 100
14 | O=C1OC2(CN3CCC2CC3)C(=O)N1c1cc(C(F)(F)F)cc(C(F)(F)F)c1 (stereo not drawn) [Compound 8, 3′-(3,5-bis(trifluoromethyl)phenyl)-quinuclidine-3-spiro-5′-oxazolidine-2′,4′-dione trifluoroacetate salt] | 77 | 0
15 | O=C1OC2(CN3CCC2CC3)C(=O)N1c1ccccc1F (stereo not drawn) [Compound 9, 3′-(2-fluorophenyl)-quinuclidine-3-spiro-5′-oxazolidine-2′,4′-dione trifluoroacetate salt] | 16 | 100
16 | Cc1ccc(N2C(=N)CC3(CN4CCC3CC4)OC2=O)cc1 (stereo not drawn) [Compound 101, 3′-(4-methylphenyl)-quinuclidine-3-spiro-4′-iminooxan-2-ones trifluoroacetate salt] | 24 | 27
17 | CC(C)c1ccccc1N1C(=O)OC2(CN3CCC2CC3)C1=O (stereo not drawn) [Compound 28, 3′-(2-isopropylphenyl)-quinuclidine-3-spiro-5′-oxazolidine-2′,4′-dione trifluoroacetate salt] | 47 | 0
18 | Cc1ccc(N2C(=O)OC3(CN4CCC3CC4)C2=O)cc1Cl (stereo not drawn) [Compound 24, 3′-(3-chloro-4-methylphenyl)-quinuclidine-3-spiro-5′-oxazolidine-2′,4′-dione trifluoroacetate salt] | 44 | 40
19 | O=C1OC2(CN3CCC2CC3)C(=O)N1c1cccc(F)c1 (stereo not drawn) [Compound 25, 3′-(3-fluorophenyl)-quinuclidine-3-spiro-5′-oxazolidine-2′,4′-dione trifluoroacetate salt] | 48 | 5
20 | O=C1OC2(CN3CCC2CC3)C(=O)N1c1ccc(Cl)c(Cl)c1 (stereo not drawn) [Compound 5, 3′-(3,4-dichlorophenyl)-quinuclidine-3-spiro-5′-oxazolidine-2′,4′-dione trifluoroacetate salt] | 27 | 98
21 | COc1ccc(N2C(=N)CC3(CN4CCC3CC4)OC2=O)cc1 (stereo not drawn) [Compound 100, 3′-(4-methoxyphenyl)-quinuclidine-3-spiro-4′-iminooxan-2-ones trifluoroacetate salt] | 34 | 48
22 | Cc1cc(O)ccc1N1C(=O)OC2(CN3CCC2CC3)C1=O (stereo not drawn) [Compound 19, 3′-(4-hydroxy-2-methylphenyl)-quinuclidine-3-spiro-5′-oxazolidine-2′,4′-dione trifluoroacetate salt] | 27 | 0
23 | Cc1cc(C)cc(N2C(=O)OC3(CN4CCC3CC4)C2=O)c1 (stereo not drawn) [Compound 20, 3′-(3,5-dimethylphenyl)-quinuclidine-3-spiro-5′-oxazolidine-2′,4′-dione trifluoroacetate salt] | 53 | 0
24 | Cc1ccc(N2C(=O)OC3(CN4CCC3CC4)C2=O)cc1C (stereo not drawn) [Compound 16, 3′-(3,4-dimethylphenyl)-quinuclidine-3-spiro-5′-oxazolidine-2′,4′-dione trifluoroacetate salt] | 44 | 67
25 | O=C1OC2(CN3CCC2CC3)C(=O)N1c1cccc([N+](=O)[O-])c1 (stereo not drawn) [Compound 6, 3′-(3-nitrophenyl)-quinuclidine-3-spiro-5′-oxazolidine-2′,4′-dione trifluoroacetate salt] | 64 | 21
26 | Cc1ccccc1N1C(=O)OC2(CN3CCC2CC3)C1=O (stereo not drawn) [Compound 26, 3′-(2-methylphenyl)-quinuclidine-3-spiro-5′-oxazolidine-2′,4′-dione trifluoroacetate salt] | 54 | 45
27 | Cc1cc(C)cc(N2C(=N)CC3(CN4CCC3CC4)OC2=O)c1 (stereo not drawn) [Compound 106, 3′-(3,5-dimethylphenyl)-quinuclidine-3-spiro-4′-iminooxan-2-ones trifluoroacetate salt] | 18 | 80
28 | O=C1OC2(CN3CCC2CC3)C(=O)N1c1cc(Cl)cc(Cl)c1 (stereo not drawn) [Compound 7, 3′-(3,5-dichlorophenyl)-quinuclidine-3-spiro-5′-oxazolidine-2′,4′-dione trifluoroacetate salt] | 70 | 62
29 | Cc1ccc(N2C(=O)OC3(CN4CCC3CC4)C2=O)cc1 (stereo not drawn) [Compound 2, 3′-(4-methylphenyl)-quinuclidine-3-spiro-5′-oxazolidine-2′,4′-dione trifluoroacetate salt] | 74 | 44
30 | O=C1OC2(CN3CCC2CC3)C(=O)N1c1cccc(O)c1 (stereo not drawn) [Compound 15, 3′-(3-hydroxyphenyl)-quinuclidine-3-spiro-5′-oxazolidine-2′,4′-dione trifluoroacetate salt] | 55 | 50
